This note sets out measurements from ChEMBL document CHEMBL4190348, “Synthesis of cytotoxically active derivatives based on alkylated 2,3-seco-triterpenoids” (Eur J Med Chem, 2017).

Activity calls are given as the source filed them. The rule behind the calls is not given here.

Series [1] concerns HCT-116. Kind of series: Induction of apoptosis in human HCT116 cells assessed as early apoptotic cells level at 2 uM incubated for 16 hrs by Annexin V-FICT/PI staining based flow cytometry (reference value: 4.47%). In kind it is functional. In general terms: A flow cytometer gives signals particle by particle.
The test system of series [2] is HCT-116. Kind of series: Induction of apoptosis in human HCT116 cells assessed as necrotic cells level at 2 uM incubated for 16 hrs by Annexin V-FICT/PI staining based flow cytometry (reference value: 1.67%). In kind it is functional.
Series [3] deals with HCT-116. Nature of the series: Induction of apoptosis in human HCT116 cells assessed as increase in mitochondrial membrane depolarization at 2 uM incubated for 18 hrs by rhodamine 123 staining based fluorescent inverted microscopy (reference value: 8%). It counts as functional.
Series [4] relates to HCT-116. Kind of series: Induction of apoptosis in human HCT116 cells assessed as late apoptotic cells level at 2 uM incubated for 16 hrs by Annexin V-FICT/PI staining based flow cytometry (reference value: 2.51%). It counts as functional.
Series [5] in a line: Cytotoxicity against human MS cells assessed as reduction in cell viability incubated for 72 hrs by MTT assay. It counts as functional, cell-based.
Series [6] concerns HCT-116. Kind of series: Cytotoxicity against human HCT116 cells assessed as reduction in cell viability incubated for 72 hrs by MTT assay. In kind it is functional, cell-based. Conditions: HCT-116, 72 h. In general terms: Formazan colour is commonly taken as a measure of viable cells.
The subject of the next series is HEp-2. Nature of the series: Cytotoxicity against human Hep2 cells assessed as reduction in cell viability incubated for 72 hrs by MTT assay. In kind it is functional, cell-based. Conditions: HEp-2, 72 h.
In series [7] the test system is HCT-116. Nature of the series: Induction of apoptosis in human HCT116 cells assessed as viable cells level at 2 uM incubated for 16 hrs by Annexin V-FICT/PI staining based flow cytometry (reference value: 91.36%). It counts as functional.
Series [8] relates to HCT-116. Nature of the series: Induction of apoptosis in human HCT116 cells assessed as late apoptotic cells level at 10 uM incubated for 16 hrs by Annexin V-FICT/PI staining based flow cytometry (reference value: 2.51%). In kind it is functional.
Series [9] is described as follows: Selectivity index, ratio of IC50 for HEK293 cells to IC50 for human MS cells. It counts as toxicity. Conditions: HEK293 cells versus MS cells, read-out: Ratio IC50.
The subject of series [10] is HCT-116. Kind of series: Induction of apoptosis in human HCT116 cells assessed as increase in cck18 level at 10 uM after 18 hrs by fluorimetric assay. In kind it is functional, cell-based.
Series [11] deals with HCT-116. Nature of the series: Induction of apoptosis in human HCT116 cells assessed as necrotic cells level at 10 uM incubated for 16 hrs by Annexin V-FICT/PI staining based flow cytometry (reference value: 1.67%). In kind it is functional.
For series [12], the system named is HCT-116. Nature of the series: Cytotoxicity against human HCT116 cells assessed as reduction in cell viability at 10 uM incubated for 12 to 72 hrs by MTT assay. In kind it is functional, cell-based. As to conditions: TDE = time-dependent effect.
Series [13] in a line: Selectivity index, ratio of IC50 for HEK293 cells to IC50 for human Hep2 cells. In kind it is toxicity. As to conditions: HEK293 cells versus Hep2 cells, read-out: Ratio IC50.
A further series has as its system RD. Kind of series: Cytotoxicity against human TE32 cells assessed as reduction in cell viability incubated for 72 hrs by MTT assay. It counts as functional, cell-based.
The nature of series [14]: Selectivity index, ratio of IC50 for HEK293 cells to IC50 for human HCT116 cells. It counts as toxicity. Conditions: HEK293 cells versus HCT116 cells, read-out: Ratio IC50.
Series [15] relates to HCT-116. Nature of the series: Induction of apoptosis in human HCT116 cells assessed as increase in mitochondrial membrane depolarization at 10 uM incubated for 18 hrs by rhodamine 123 staining based fluorescent inverted microscopy (reference value: 8%). It counts as functional.
Series [16] concerns HCT-116. Kind of series: Induction of apoptosis in human HCT116 cells assessed as increase in caspase-8 activity at 10 uM after 12 hrs by fluorimetric assay. It counts as functional, cell-based.
Series [17] has as its system HCT-116. Nature of the series: Induction of apoptosis in human HCT116 cells assessed as increase in caspase-3/7 activity at 10 uM after 18 hrs by fluorimetric assay. In kind it is functional, cell-based.
In series [18] the test system is HCT-116. Nature of the series: Induction of apoptosis in human HCT116 cells assessed as increase in caspase-3/7 activity at 10 uM after 24 hrs by fluorimetric assay. It counts as functional, cell-based.
Series [19] can be described thus: Selectivity index, ratio of IC50 for HEK293 cells to IC50 for human TE32 cells. It counts as toxicity. As to conditions: HEK293 cells versus TE32 cells, read-out: Ratio IC50.
The subject of series [20] is HCT-116. Nature of the series: Induction of apoptosis in human HCT116 cells assessed as increase in chromatin condensation at 10 uM incubated for 18 hrs by Hoechst 33258 staining based fluorescent inverted microscopy. It counts as functional.
The subject of series [21] is HCT-116. Nature of the series: Induction of apoptosis in human HCT116 cells assessed as viable cells level at 10 uM incubated for 16 hrs by Annexin V-FICT/PI staining based flow cytometry (reference value: 91.36%). In kind it is functional.
The test system of series [22] is HCT-116. Nature of the series: Induction of apoptosis in human HCT116 cells assessed as early apoptotic cells level at 10 uM incubated for 16 hrs by Annexin V-FICT/PI staining based flow cytometry (reference value: 4.47%). It counts as functional.
Another series relates to HEK293. Nature of the series: Cytotoxicity against HEK293 cells assessed as reduction in cell viability incubated for 72 hrs by MTT assay. In kind it is cell-based. As to conditions: Homo sapiens, HEK293, 72 h.
The next series deals with A549. Kind of series: Cytotoxicity against human A549 cells assessed as reduction in cell viability incubated for 72 hrs by MTT assay. It counts as functional, cell-based. Conditions: A549, 72 h.

Turning to `CC[C@@]1(O)C(=O)OCc2c1cc1n(c2=O)Cc2cc3ccccc3nc2-1` [CAMPTOTHECIN], the Activity in the series with HCT-116 [1] is on record as 12.44%; in the series with HCT-116 [2], 1.6%; with HCT-116 [3], -30%; in the series on HCT-116 [4], 5.07%; in the series on HCT-116 [7] it was 80.88%. Also, the IC50 (in general, the concentration that gives 50% inhibition) was 1.84 µM in [5], 1.88 µM in the series on HCT-116 [6] and 3.04 µM in the series with HEp-2.

For the compound `C=C(C=O)[C@@H]1CC[C@]2(C(=O)OC)CC[C@]3(C)[C@H](CC[C@@H]4[C@@](C)(CC#N)[C@H](C(C)(C)C(=O)CBr)CC[C@]43C)[C@@H]12`, the Activity is 10.07% with HCT-116 [8]; 4.46% in the series on HCT-116 [11]; “Tde” in the series on HCT-116 [12]; 11.6% in the series on HCT-116 [15]; 28.3% in the series with HCT-116 [20]; 59.86% in the series on HCT-116 [21]. In the series on HCT-116 [22], the Activity amounted to 25.61%. For the same compound, the selectivity ratio in series [9] turned out to be 27.2; in [13], 17.4; in series [14], 8.9; in series [19], 24.3. Also, the result in the series with HCT-116 [10], with HCT-116 [16], in the series with HCT-116 [17] and with HCT-116 [18] was Active. Besides, the concentration for half-maximal inhibition (IC50) with RD was 3.84 µM; in [5] it was 3.41 µM; with HCT-116 [6], 10.3 µM; in the series with HEp-2, 5.28 µM; in the series on HEK293, 92.3 µM; in the series on A549, 25.4 µM.
